What follows are compounds tested against T1, VEGFR3 cytoplasmic domain (Homo sapiens, UniProt P35916) (assay: VEGFR3 biochemical assay (AlphaScreen)). Details: GST-VEGFR3 cytoplasmic domain, 500 μM ATP (modified form: His-fusion, 1 μM ATP).
T1 construct: VEGFR3 cytoplasmic domain (amino acids 798-1298) was purchased as N-terminal GST-fusion protein; GST (N); purchased
Protocol: Compounds of the invention may be tested for in vitro activity in the following assay: A biotin labelled peptide is used as substrate (amino acid sequence: Biotin-[…]NH2). VEGFR3 cytoplasmic domain (amino acids 798-1298) was purchased as N-terminal GST-fusion protein (“the enzyme”). The 15 μL assay reactions are run in Greiner brand white 384-well low volume plates. All reactions contained 10 mM HEPES pH 7.4, 10 mM MgCl2, 0.01% (v/v) Tween-20, 50 μM Na3VO4, 0.01% (w/v) albumin from chicken egg white, 1 mM Dithiothreitol, 111 nM peptide substrate, 500 μM ATP, and 3.8 ng/reaction enzyme, with the enzyme being omitted from negative control reactions. Compounds were added in a volume of […] from dilution series prepared in DMSO, positive and negative control reactions receiving the same volume DMSO without compound. The plates were sealed with adhesive seals and incubated for 90 minutes at 30 degree Celsius. The reactions were stopped with the detection reagents added at the same time as follows: Product formation was quantified as amplified luminescence between PerkinElmer AlphaScreen™ beads, using Streptavidin-coated donor and anti-phosphotyrosine (P-Tyr-100) acceptor beads. To each reaction, 5 μL containing 10 mM HEPES pH 7.4, 25 mM NaCl, 100 mM EDTA, 0.01% (v/v) Tween-20, and 6.25 μg/mL of each bead type were added. Plates were incubated for 6 hours before being read on a PerkinElmer EnVision™ plate reader in HTS Alphascreen™ mode. IC50 values were obtained by calculating percent inhibition (% I) for each reaction relative to controls on the same plate (% I=(I-CN)/(CP-CN) where CN/CP are the averages of the negative/positive reactions, respectively), then fitting the % I data vs. compound concentration [I] to % I=(A+((B−A)/(1+((C/[I])̂D)))) where A is the lower asymptote, B is the upper asymptote, C is the IC50 value, and D is the slope factor.
The above assay was also run in a modified form in some cases (indicated below with *). In these cases, VEGFR3 cytoplasmic domain (amino acids 818-1177, lacking 949-1002 of UniProt accession number P35916) was expressed and purified as N-terminal Hexa-His-fusion protein (“the enzyme”), rather than using the N-terminal GST-fusion protein. The assay conditions were the same as above but with 1 μM ATP and 8 ng/reaction of the enzyme.

T1 sequence (P35916 798-1298 isoform P35916-1): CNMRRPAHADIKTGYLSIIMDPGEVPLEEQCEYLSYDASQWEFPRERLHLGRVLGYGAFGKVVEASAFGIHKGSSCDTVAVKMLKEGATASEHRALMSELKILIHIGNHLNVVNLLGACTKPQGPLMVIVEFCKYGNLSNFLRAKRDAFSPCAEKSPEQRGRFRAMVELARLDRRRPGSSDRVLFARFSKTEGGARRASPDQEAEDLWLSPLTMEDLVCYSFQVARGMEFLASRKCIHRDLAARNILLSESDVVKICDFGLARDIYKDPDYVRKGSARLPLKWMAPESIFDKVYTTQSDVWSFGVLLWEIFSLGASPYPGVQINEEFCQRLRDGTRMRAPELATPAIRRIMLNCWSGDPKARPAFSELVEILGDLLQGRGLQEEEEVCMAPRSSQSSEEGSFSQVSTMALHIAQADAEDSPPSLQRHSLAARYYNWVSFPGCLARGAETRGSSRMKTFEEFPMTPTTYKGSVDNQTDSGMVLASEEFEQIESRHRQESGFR

Going from `NC(=O)Cc1ccccc1CCc1ccnc(Nc2ccc(N3CCNCC3)cc2)n1` [Compound 1, 2-(2-(2-(2-((4-(piperazin-1-yl)phenyl)amino)pyrimidin-4-yl)ethyl)phenyl)acetamide] to `COc1cnc(Nc2ccc(C3CCNCC3)cc2)nc1CCc1ccccc1CC(N)=O` [Compound 23, 2-(2-(2-(5-methoxy-2-((4-(piperidin-4-yl)phenyl)amino)pyrimidin-4-yl)ethyl)phenyl)acetamide], the IC50 falls from 161 nM to 72 nM (2.2-fold). The second is the more potent here.

`NC(=O)Cc1ccccc1CCc1nc(Nc2ccc(C3CCNCC3)c(F)c2)ncc1C(F)(F)F` [Compound 7, 2-(2-(2-(2-((3-Fluoro-4-(piperidin-4-yl)phenyl)amino)-5-(trifluoromethyl)pyrimidin-4-yl)ethyl)phenyl)acetamide] and `CN1CCC(c2ccc(Nc3ncc(C(F)(F)F)c(CCc4ccccc4CC(N)=O)n3)cc2F)CC1` [Compound 8, 2-(2-(2-(2-((3-fluoro-4-(1-methylpiperidin-4-yl)phenyl)amino)-5-(trifluoromethyl)pyrimidin-4-yl)ethyl)phenyl)acetamide] are within 1.5-fold of each other in IC50: 40 nM for the first, 34 nM for the second.

`CN1CCC(c2ccc(Nc3ncc(C(F)(F)F)c(CCc4ccc(F)cc4CC(N)=O)n3)cc2)CC1` [Compound 10, 2-(5-fluoro-2-(2-(2-((4-(1-methylpiperidin-4-yl)phenyl)amino)-5-(trifluoromethyl)pyrimidin-4-yl)ethyl)phenyl)acetamide] and `CN1CCC(c2ccc(Nc3ncc(C(F)(F)F)c(CCc4cc(C(F)(F)F)ccc4CC(N)=O)n3)cc2)CC1` [Compound 17, 2-(2-(2-(2-((4-(1-methylpiperidin-4-yl)phenyl)amino)-5-(trifluoromethyl)pyrimidin-4-yl)ethyl)-4-(trifluoromethyl)phenyl)acetamide] are within 1.5-fold of each other in IC50: 76 nM for the first, 67 nM for the second.

Going from `CN1CCC(c2ccc(Nc3ncc(C(F)(F)F)c(CCc4ccccc4CC(N)=O)n3)cn2)CC1` [Compound 14, 2-(2-(2-(2-((6-(1-methylpiperidin-4-yl)pyridin-3-yl)amino)-5-(trifluoromethyl)pyrimidin-4-yl)ethyl)phenyl)acetamide] to `CN1CCC(n2cc(Nc3ncc(C(F)(F)F)c(CCc4ccccc4CC(N)=O)n3)cn2)CC1` [Compound 36, 2-(2-(2-(2-((1-(1-methylpiperidin-4-yl)-^1H-pyrazol-4-yl)amino)-5-(trifluoromethyl)pyrimidin-4-yl)ethyl)phenyl)acetamide], the IC50 falls from 81 nM to 50 nM (1.6-fold).

`NC(=O)Cc1ccc(F)cc1CCc1nc(Nc2ccc(C3CCNCC3)cc2)ncc1C(F)(F)F` [Compound 15, 2-(4-fluoro-2-(2-(2-((4-(piperidin-4-yl)phenyl)amino)-5-(trifluoromethyl)pyrimidin-4-yl)ethyl)phenyl)acetamide] and `NC(=O)Cc1cccc(F)c1CCc1nc(Nc2ccc(C3CCNCC3)cc2)ncc1C(F)(F)F` [Compound 41] are within 1.5-fold of each other in IC50: 31 nM for the first, 26 nM for the second.

`NC(=O)Cc1ccccc1CCc1nc(Nc2ccc(C3CNC3)cc2)ncc1C(F)(F)F` [Compound 20, 2-(2-(2-(2-((4-(azetidin-3-yl)phenyl)amino)-5-(trifluoromethyl)pyrimidin-4-yl)ethyl)phenyl)acetamide] and `Cc1cnc(Nc2ccc(C3CNC3)cc2)nc1CCc1ccccc1CC(N)=O` [Compound 32, 2-(2-(2-(2-((4-(azetidin-3-yl)phenyl)amino)-5-methylpyrimidin-4-yl)ethyl)phenyl)acetamide] are within 1.5-fold of each other in IC50: 37 nM for the first, 52 nM for the second.

Going from `NC(=O)Cc1cc(C(F)(F)F)ccc1CCc1nc(Nc2ccc(C3CCNCC3)cc2)ncc1C(F)(F)F` [Compound 25, 2-(2-(2-(2-((4-(piperidin-4-yl)phenyl)amino)-5-(trifluoromethyl)pyrimidin-4-yl)ethyl)-5-(trifluoromethyl)phenyl)acetamide] to `NC(=O)Cc1ccccc1CCc1nc(Nc2cnn(C3CCNCC3)c2)ncc1C(F)(F)F` [Compound 35, 2-(2-(2-(2-((1-(piperidin-4-yl)-^1H-pyrazol-4-yl)amino)-5-(trifluoromethyl)pyrimidin-4-yl)ethyl)phenyl)acetamide], the IC50 falls from 278 nM to 23 nM (12-fold). The second is the more potent here.

First: Cc1cnc(Nc2ccc(CN)cc2)nc1CCc1ccccc1CC(N)=O [Compound 27, 2-(2-(2-(2-((4-(aminomethyl)phenyl)amino)-5-methylpyrimidin-4-yl)ethyl)phenyl)acetamide]
Second: Cc1cnc(Nc2ccc(C(C)N)cc2)nc1CCc1ccccc1CC(N)=O (stereo not drawn) [Compound 34, 2-(2-(2-(2-((4-(1-aminoethyl)phenyl)amino)-5-methylpyrimidin-4-yl)ethyl)phenyl)acetamide]
The IC50 of the first is 1.7-fold higher: 118 nM for the first, 71 nM for the second. The second is the more potent here.

Going from `COC(=O)NC1(c2ccc(Nc3ncc(C)c(CCc4ccccc4CC(N)=O)n3)cc2)CCC1` [Compound 29, methyl 1-(4-(4-(2-(2-amino-2-oxoethyl)phenethyl)-5-methylpyrimidin-2-ylamino)phenyl)cyclobutylcarbamate] to `Cc1cnc(Nc2cnn(C3CNC3)c2)nc1CCc1ccccc1CC(N)=O` [Compound 30, 2-(2-(2-(2-((1-(azetidin-3-yl)-^1H-pyrazol-4-yl)amino)-5-methylpyrimidin-4-yl)ethyl)phenyl)acetamide], the IC50 falls from 17 nM to 9 nM (1.9-fold).

Compared with `CC(N)c1cccc(Nc2ncc(Cl)c(CCc3ccccc3CC(N)=O)n2)c1` (stereo not drawn) [Compound 38, 2-(2-(2-(2-((3-(1-aminoethyl)phenyl)amino)-5-chloropyrimidin-4-yl)ethyl)phenyl)acetamide], `CC(=O)NC(C)c1cccc(Nc2ncc(Cl)c(CCc3ccccc3CC(N)=O)n2)c1` (stereo not drawn) [Compound 39, 2-(2-(2-(2-((3-(1-acetamidoethyl)phenyl)amino)-5-chloropyrimidin-4-yl)ethyl)phenyl)acetamide] is 7.6-fold lower in IC50: 76 nM for the first, 10 nM for the second.

With `CC(N)c1ccc(Nc2ncc(C(F)(F)F)c(CCc3ccccc3CC(N)=O)n2)cn1` (stereo not drawn) [Compound 40, 2-(2-(2-(2-((6-(1-Aminoethyl)pyridin-3-yl)amino)-5-(trifluoromethyl)pyrimidin-4-yl)ethyl)phenyl)acetamide] the IC50 was 187 nM.

Reference: patent publication US20150225377A1, “VEGFR3 INHIBITORS” (CANCER THERAPEUTICS CRC PTY LIMITED, priority 2012, published 2015)
